Results: patent US9493436B2, “Tyrosine phosphatase inhibitors and uses thereof to modulate the activity of enzymes involved in the pathology of Mycobacterium tuberculosis” (priority 2011, dated 2016)

What was measured:
Cdc14A = target: T1, Cdc14A (Homo sapiens, UniProt Q9UNH5); assay: PTP selectivity panel: Cdc14A; assay type: biochemical
T1 sequence (Q9UNH5 1-594): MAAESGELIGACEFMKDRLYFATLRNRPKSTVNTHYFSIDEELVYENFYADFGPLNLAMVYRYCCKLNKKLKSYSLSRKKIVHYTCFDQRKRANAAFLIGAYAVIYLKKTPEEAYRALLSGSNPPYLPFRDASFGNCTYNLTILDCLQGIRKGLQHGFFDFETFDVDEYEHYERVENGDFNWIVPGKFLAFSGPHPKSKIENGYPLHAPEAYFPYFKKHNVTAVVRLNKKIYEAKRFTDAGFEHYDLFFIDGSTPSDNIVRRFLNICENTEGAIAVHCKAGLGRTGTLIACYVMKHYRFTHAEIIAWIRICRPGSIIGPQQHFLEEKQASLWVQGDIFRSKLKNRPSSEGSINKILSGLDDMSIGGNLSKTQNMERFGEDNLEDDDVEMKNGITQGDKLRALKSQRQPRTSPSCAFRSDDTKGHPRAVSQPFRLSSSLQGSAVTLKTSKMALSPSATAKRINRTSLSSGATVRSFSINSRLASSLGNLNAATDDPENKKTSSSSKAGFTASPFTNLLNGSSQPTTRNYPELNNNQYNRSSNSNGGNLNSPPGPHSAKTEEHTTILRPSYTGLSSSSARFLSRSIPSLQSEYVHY

[1] = tested on: ERK1/2 phosphorylation in Raw264.7 cells expressing mPTPB; assay: ERK phosphorylation in macrophage cells expressing mPTPB (western blot); assay type: cell-based, mouse; conditions: IFN-γ, L01Z08 especially at 120 and 240 nM
Method: (§1) As explained above, ERK phosphorylation is important in the cellular secretion pathway of IL-6. However, mPTPB blocks or inhibits the phosphorylation of ERK which reduces and potentially prevents IL-6 secretion altogether.
Raw264.7 mouse macrophages were cultured in Dulbecco's modified Eagle's medium (DMEM) supplemented with 10% FBS (Invitrogen), penicillin (50 units/mL), and streptomycin (50 μg/mL) under a humidified atmosphere containing 5% CO2 at 37° C. Transfected Raw264.7 cells (Vector, WT-mPTPB) were seeded in a 12-well plate at a density of 4×10^4 cells/well. The following day cells were treated with mPTPB inhibitor 213a for 1 hr, then stimulated with IFN-γ (200 U/ml) for 1 h. […]. Wash with ice-cold phosphate buffered saline, and lysed with lysis buffer on ice for 30 min. Cell lysate is then cleared by centrifuging at 13,000 rpm for 15 min. The phosphorylation of ERK1/2 and Akt was detected by western blotting.

[2] = tested on: IL-6 secretion in cells expressing mPTPB; assay: IL-6 secretion in cells expressing mPTPB; assay type: cell-based; conditions: especially at 120 and 240 nM
Source text: as §1

[3] = tested on: Akt phosphorylation in Raw264.7 cells expressing mPTPB; assay type: cell-based, mouse; conditions: macrophage cells expressing mPTPB, increasing concentrations
SHP1-D1C = SHP1-D1C (Homo sapiens, UniProt P29350); assay: biochemical
Sequence of SHP1-D1C (P29350 244-528 limits assumed): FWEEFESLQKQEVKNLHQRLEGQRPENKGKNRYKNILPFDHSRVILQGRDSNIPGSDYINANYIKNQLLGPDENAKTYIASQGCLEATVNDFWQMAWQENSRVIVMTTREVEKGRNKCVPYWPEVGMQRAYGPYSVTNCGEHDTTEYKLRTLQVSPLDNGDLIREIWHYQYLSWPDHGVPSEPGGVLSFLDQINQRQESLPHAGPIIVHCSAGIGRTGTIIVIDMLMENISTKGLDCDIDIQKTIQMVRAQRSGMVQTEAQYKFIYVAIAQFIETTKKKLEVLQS

SHP2-D2C = SHP2-D2C (Homo sapiens, UniProt Q06124); assay: biochemical; assay type: biochemical
Sequence of SHP2-D2C (Q06124 224-528 limits assumed): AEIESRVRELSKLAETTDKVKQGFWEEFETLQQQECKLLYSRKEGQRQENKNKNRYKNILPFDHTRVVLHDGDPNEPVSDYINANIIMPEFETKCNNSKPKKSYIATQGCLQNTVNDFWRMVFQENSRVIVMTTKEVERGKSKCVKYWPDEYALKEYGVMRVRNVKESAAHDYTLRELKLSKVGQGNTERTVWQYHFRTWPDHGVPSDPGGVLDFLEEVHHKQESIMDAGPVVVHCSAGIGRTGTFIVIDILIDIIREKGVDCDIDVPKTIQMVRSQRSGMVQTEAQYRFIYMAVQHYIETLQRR

| Compound | IC50 (Cdc14A) [µM] | ERK phosphorylation / ERK1/2 activity [1] | IL-6 secretion [2] | AKT phosphorylation / Akt activation [3] | IC50 (SHP1-D1C) [µM] | IC50 (SHP2-D2C) [µM] |
| --- | --- | --- | --- | --- | --- | --- |
| O=C(O)c1cc2c(C#Cc3cccc(C(F)(F)F)c3)c(-c3ccccc3)oc2cc1O [32 (L01Z08)] | 6 ± 1 | normal or near normal levels | returned to normal or near normal IL-6 secretion levels | phosphorylation decreasing with treatments of increasing concentrations | – | – |
| Cn1c(-c2ccccc2C(F)(F)F)c(I)c2cc(C(=O)O)c(O)cc21 [Compound 207a, 6-hydroxy-3-iodo-1-methyl-2-(2-(trifluoromethyl)phenyl)-1H-indole-5-carboxylic acid] | – | – | – | – | 86.8 ± 0.4 | 87 ± 4 |
